Earlier results on 33 substances are cited in US20100183720A1, “Hetero-assembled hydrogels” (The Board of Trustees of the Leland Stanford Junior …, priority 2008, published 2010).

In one series the target is T1, PABC Domain (Homo sapiens, UniProt P11940).
T1 construct: PABC Domain
The conditions noted are these: SPR; read-out: Dissociation constant, Kd (SPR Kd).

Another series addresses T2, SH3 Domain (Homo sapiens, UniProt P27986).
T2 construct: SH3 Domain
The conditions noted are these: read-out: Dissociation constant, Kd.

Series [1] has as its target T3, Human YAP65 (Yes kinase-associated protein) WW Domain (Homo sapiens, UniProt P46937).
T3 construct: WW Domain
The note with it: read-out: Dissociation constant, Kd (Binding constant).

Another series has as its target T4, Human Tsg101 UEV domain (Homo sapiens, UniProt Q99816).
T4 construct: Human Tsg101 UEV domain
T4 sequence (Q99816 2-145 limits assumed): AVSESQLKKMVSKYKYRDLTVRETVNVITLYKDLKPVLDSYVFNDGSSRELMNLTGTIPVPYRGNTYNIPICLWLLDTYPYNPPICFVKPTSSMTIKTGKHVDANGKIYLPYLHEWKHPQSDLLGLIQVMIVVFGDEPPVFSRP
The conditions noted are these: read-out: Dissociation constant, Kd (Binding constant).

The target in series [2] is T5, SH3 Domain PI3K (1 SH3 and 2 SH2) (Homo sapiens, UniProt P27986).
T5 construct: SH3 Domain
The note with it: read-out: Dissociation constant, Kd.

The target in series [3] is model group I polyproline peptide. The conditions noted are these: monomeric units of WW domain bound to model group I polyproline peptide; read-out: apparent dissociation constant.
The target in series [4] is T6, SH3 Domain cSRC (1 SH3 and 1 SH2) (Gallus gallus, UniProt P00523).
T6 construct: SH3 Domain
The note with it: read-out: Dissociation constant, Kd.

T3 sequence (P46937 171-204 limits assumed): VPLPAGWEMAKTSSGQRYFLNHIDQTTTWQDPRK
T5 sequence (P27986 3-79 limits assumed): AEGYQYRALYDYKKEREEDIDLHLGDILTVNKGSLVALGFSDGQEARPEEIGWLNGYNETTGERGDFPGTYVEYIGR
T2 sequence (P27986 3-79 limits assumed): as above
T1 sequence (P11940 542-619 limits assumed): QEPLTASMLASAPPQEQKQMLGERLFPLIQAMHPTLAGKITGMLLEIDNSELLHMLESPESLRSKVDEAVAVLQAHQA

In the case of AFSRQLNVNAKPFVPNVHA, at PABC Domain, the Kd was 3.9 µM. In the case of AFSRQLNVNAKPFVPNVHAAEFVPSFLR, the Kd at PABC Domain was 1.3 µM. With AKLPPRPSK, on SH3 Domain, the Kd is 98 ± 0.2 µM. Regarding AKPFVPNVHAAEFVPSFLR, the Kd at PABC Domain is 3.1 µM. Regarding GTPPPPYTVG, the Kd in series [1] is 52 ± 6 µM. Consider “HIV-1 p6 protein: binding partner of Human Tsg101 UEV domain (LQSRPEPTAPPEESFRSGVETTTPPQKQEPIDKELYPLTSLRSLFGNDPSSQ; p6-gag; UniProt P04591 449-500, looked up)”, for which, in the series with Human Tsg101 UEV domain, the Kd is 27 ± 5 µM. With LNKPPLPKR, the Kd in series [2] was 13 µM. Regarding LVVKSNLNPNAKEF, on PABC Domain, the Kd was 260 µM.

As for LVVKSNLPNAKEFVP, the Kd at PABC Domain is 3 µM. For the substance “Nedd4.3: wild-type WW domain sequence (Protein Data Bank 1I5H), monomeric unit (PLPPGWEERTHTDGRVFFINHNIKKTQWEDPRMQ; Natural WW domain also called Nedd4.3 Kanelis, V., Rotin D. & Forman-Kay, JD (2001) Solution structure of a Nedd4 WW domain-ENaC peptide complex, Nat Struct Biol 8 407-12.)”, the Kd in series [3] is 11.2 ± 1.2 µM.

For PYHPPLPRR, in series [4], the Kd is 13 µM. With RALPPLPRY, the Kd in series [2] was 17 µM. For RALPPRPSK, at SH3 Domain, the Kd was 9.7 ± 0.2 µM. For the substance RELPPIPVF, the Kd in series [4] was 9.6 µM. For RELPPLPRF, the Kd in series [4] is 7.8 µM.

On to RKAPPRPSK, for which the Kd at SH3 Domain was 37 ± 1 µM.

Turning to RKLAPRPSK, the Kd on SH3 Domain is 140 ± 10 µM.

In the case of RKLPARPSK, on SH3 Domain, the Kd is 16.5 ± 0.1 µM. As to RKLPPAPSK, at SH3 Domain, the Kd is 29 ± 2 µM. On to RKLPPRASK, for which the Kd on SH3 Domain is 53 ± 6 µM. As for RKLPPRP, the Kd on SH3 Domain was 12.8 ± 0.6 µM.

RKLPPRPAF: the Kd in series [2] is 11 µM. In the case of RKLPPRPSK, the Kd was 73 µM in series [4], 9.1 ± 0.6 µM on SH3 Domain and 9.1 µM in series [2]. As for RPLPPRPSK, the Kd at SH3 Domain is 9.1 ± 0.6 µM. Take RPLPPTPKY: the Kd in series [4] is 12 µM. Turning to RYLPPRPMY, the Kd in series [2] is 13 µM. On to SAPPPYTV, for which the Kd in series [1] was 53 ± 17 µM. Regarding SNLNPNAKEFVPGVKYG, the Kd on PABC Domain was 0.19 µM. SPPPAYTV: in series [1], the Kd was 63 ± 17 µM. As to SPPPPFTV, the Kd in series [1] was 118 ± 17 µM.

As to SPPPYTV, the Kd in series [1] is 47 ± 6 µM. For the substance VLMSKLSVNAPEFYPSGYSSSY, at PABC Domain, the Kd was 2.3 µM.

For the substance VVKSNLNPNAKEFVPGVKYGNI, the Kd at PABC Domain was 0.16 µM.
